# Data reported in US20260137671A1, “PDK4 as a Cell-Aging Intervention Target and Its Use in Chemotherapy and Anticancer” (Shanghai Institute of Nutrition and Health, Chinese Academy …, priority 2022, published 2026).
# How the values were obtained:
# [1] = test system: tumor tissues of mice (PC3/PSC27 xenografts); assay: In vivo cellular senescence and SASP expression in xenograft tumors (LCM transcripts, SA-β-Gal staining); parameters: species or system SCID mice
# From the text: FIG. 66. Transcript assessment of several canonical SASP factors expressed in stromal cells isolated from tumors in SCID mice. LCM isolation, total RNA preparation and expression assays on tissues from animals with simultaneously implanted stromal cells and cancer cells. Note that the group measured as of the lowest value was used as normalization baseline per factor.
# FIG. 67. Transcript assessment of individual canonical SASP factors (AREG), aging markers (p16/p21) and PDK4 expressed in stromal cells isolated from tumors in SCID mice. LCM isolation, total RNA preparation and expression assays on tissues from animals with simultaneously implanted stromal cells and cancer cells. Note that the group measured as of the lowest value was used as normalization baseline per factor.
# FIG. 68. Representative IHC images of SA-β-Gal staining chromatograms from tissues isolated from animals subjected to placebo or drug treatments. Scale bar, 100 μm. Right, Comparative statistical analysis of SA-β-Gal staining for tissues in mice mentioned above.
# Senescence-associated β-galactosidase (SA-β-Gal) staining was performed following a previously reported procedure (Debacq-Chainiaux et al., 2009). Briefly, cells in culture dishes were washed with PBS and fixed at room temperature. Cells were fixed in 2% formaldehyde and 0.2% glutaraldehyde for 3 minutes. SA-β-Gal was used for staining with freshly prepared staining solution overnight at 37° C. Images were taken on the next day and the percentage of positive cells per unit area was calculated.
# For pre-clinical chemotherapeutic studies, mice received subcutaneous implantation were given standard laboratory diets. […] The time points were on the first day of the third, fifth and seventh weeks, with a total of 3 cycles of treatment, and each cycle lasted for 2 weeks. After the course of treatment, mouse […] were collected for tumor measurement and histological analysis. […]
# [2] = test system: cancer cells in tumors (PC3/PSC27 xenografts); assay: DNA damage and apoptosis in tumors by IHC (γ-H2AX, cleaved caspase 3); format: in vivo, SCID mice; details: for DNA damage and apoptosis in cancer cells: tumors dissected 7 days after initiation of treatment
# From the text: FIG. 69. Statistical evaluating values of DNA-damaged cells and apoptotic cells in analyzed tumor specimens, represented as a percentage of cells positively stained by IHC with antibodies against γ-H2AX or caspase 3 (cleaved).
# FIG. 70. Representative IHC images of caspase 3 (cleaved) in tumors at the end of therapeutic regimens. Biopsies of placebo-treated animals served as negative controls for drug-treated mice. Scale bar, 100 μm.
# Considering the primary in vivo expressive results with MIT and/or PDK4-IN treatment, the inventors next asked how pharmacologically targeting PDK4 could enhance the therapeutic response of tumors. To disclose the possible mechanism(s), the inventors chose to dissect tumors from animals 7 days after initiation of treatment, a timepoint right before the development of resistant colonies.
# [3] = test system: PC3 cells xenografted together with PSC27 cells; assay: PC3/PSC27 xenograft, tumor end volume after chemotherapy and/or PDK4-IN; format: in vivo, SCID mice
# Experimental: All experimental mouse experiments were carried out in strict accordance with the relevant regulations of the Institutional Animal Care and Use Committee (IACUC), Shanghai Institutes for Biological Sciences, Chinese Academy of Sciences. Immuno-deficient mice ICR SCID mice (body weight about 25 g) aged about 6 weeks were used for animal experiments related to the present disclosure. Stromal cells PSC27 and epithelial cells were mixed at a ratio of 1:4, and each graft contained 1.25×10^6 cells for tissue remodeling. The xenograft tumors were implanted into mice by subcutaneous transplantation, and the animals were euthanized 8 weeks after the end of the transplantation surgery. […] For pre-clinical chemotherapeutic studies, mice received subcutaneous implantation were given standard laboratory diets. […] The time points were on the first day of the third, fifth and seventh weeks, with a total of 3 cycles of treatment, and each cycle lasted for 2 weeks. After the course of treatment, mouse […] were collected for tumor measurement and histological analysis. […] The chemotherapy experiment ended at the end of the 8th week, and the mice were dissected immediately after sacrifice, and the xenograft tumors were collected and used for pathological system analysis. To closely mimic clinical conditions involving chemotherapeutic drugs, the inventors designed a preclinical regimen incorporating a genotoxic drug (MIT) and/or the PDK4 inhibitor (PDK4-IN) (FIG. 63).
# [4] = test system: MDA-MB-231 breast cancer cells xenografted together with HBF1203 breast stromal cells; assay: MDA-MB-231/HBF1203 xenograft, tumor end volume after chemotherapy and/or PDK4-IN; format: in vivo, SCID mice; details: PDK4-IN 10.0 mg/kg combined with DOX 1.0 mg/kg i.p.
# Experimental: All experimental mouse experiments were carried out in strict accordance with the relevant regulations of the Institutional Animal Care and Use Committee (IACUC), Shanghai Institutes for Biological Sciences, Chinese Academy of Sciences. Immuno-deficient mice ICR SCID mice (body weight about 25 g) aged about 6 weeks were used for animal experiments related to the present disclosure. Stromal cells PSC27 and epithelial cells were mixed at a ratio of 1:4, and each graft contained 1.25×10^6 cells for tissue remodeling. The xenograft tumors were implanted into mice by subcutaneous transplantation, and the animals were euthanized 8 weeks after the end of the transplantation surgery. Tumor volume was calculated according to the following formula: V=(π/6)×(([…])/2)^3 (V, volume; 1, length; w, width).
# For pre-clinical chemotherapeutic studies, mice received subcutaneous implantation were given standard laboratory diets. […] The time points were on the first day of the third, fifth and seventh weeks, with a total of 3 cycles of treatment, and each cycle lasted for 2 weeks. After the course of treatment, mouse […] were collected for tumor measurement and histological analysis. […] In order to cause systemic expression of SASP factors induced by chemotherapy, MIT was administered to mice through intravenous infusion according to the above steps and sequence, but the dose was reduced to 0.1 mg/kg body weight/each time (the cumulative dose of MIT received in the whole course of treatment was 0.3 mg/kg body weight) to reduce drug-related toxicity. The chemotherapy experiment ended at the end of the 8th week, and the mice were dissected immediately after sacrifice, and the xenograft tumors were collected and used for pathological system analysis.
# To assess the in vivo effects of chemotherapeutic drugs and/or PDK4-IN treatment in different tumor types, the inventors subsequently generated xenografts composed of breast cancer cell line MDA-MB-231 and breast stromal cell line HBF1203 to replicate the preclinical intervention observed in prostate cancer xenografts.
# [5] = PDK4-IN 10.0 mg/kg combined with MIT 0.2 mg/kg i.p., end of 8-week regimen
smiles,measurement,setting,value
O=C1c2ccccc2C(=O)c2c1cccc2-c1cnn(C2CCNCC2)c1 [PDK4-IN],SA-β-gal positivity in tumor tissues,"[1]; histological staining, FIG. 68",neither induced senescence nor inhibited senescence
same,cellular senescence / SASP factor and senescence marker expression in vivo,"[1]; single agent or in combination with MIT, FIGS. 66-67",neither induced nor affected cellular senescence
same,caspase 3 cleavage (IHC),[2]; PDK4-IN added to MIT,further enhanced
same,DNA damage and apoptosis in cancer cells,[2]; PDK4-IN upon combination with MIT,prominent efficacy in enhancing these therapeutic indices
same,DNA damage and apoptosis in cancer cells,[2]; single agent,neither caused typical DDR nor induced cell apoptosis
same,further decline of tumor volume over MIT alone,[3]; [5],35.5%
same,total tumor shrinkage compared to the control group,[3]; [5],72.6%
same,effect on tumor volume as single agent,"[3]; PDK4-IN alone, 10.0 mg/kg i.p.",did not provide noticeable benefits
same,further decline of tumor volume on the basis of doxorubicin (DOX),[4],39.8%
same,tumor size reduction in total compared to the control group,[4],69.5%
